This is an account of results in PMC4887995, “Small molecule dual-inhibitors of TRPV4 and TRPA1 for attenuation of inflammation and pain” (Scientific Reports, 2016).

In one experiment the target is T1, TRPV2 (Mus musculus, UniProt Q9WTR1).
T1 sequence (Q9WTR1 1-756): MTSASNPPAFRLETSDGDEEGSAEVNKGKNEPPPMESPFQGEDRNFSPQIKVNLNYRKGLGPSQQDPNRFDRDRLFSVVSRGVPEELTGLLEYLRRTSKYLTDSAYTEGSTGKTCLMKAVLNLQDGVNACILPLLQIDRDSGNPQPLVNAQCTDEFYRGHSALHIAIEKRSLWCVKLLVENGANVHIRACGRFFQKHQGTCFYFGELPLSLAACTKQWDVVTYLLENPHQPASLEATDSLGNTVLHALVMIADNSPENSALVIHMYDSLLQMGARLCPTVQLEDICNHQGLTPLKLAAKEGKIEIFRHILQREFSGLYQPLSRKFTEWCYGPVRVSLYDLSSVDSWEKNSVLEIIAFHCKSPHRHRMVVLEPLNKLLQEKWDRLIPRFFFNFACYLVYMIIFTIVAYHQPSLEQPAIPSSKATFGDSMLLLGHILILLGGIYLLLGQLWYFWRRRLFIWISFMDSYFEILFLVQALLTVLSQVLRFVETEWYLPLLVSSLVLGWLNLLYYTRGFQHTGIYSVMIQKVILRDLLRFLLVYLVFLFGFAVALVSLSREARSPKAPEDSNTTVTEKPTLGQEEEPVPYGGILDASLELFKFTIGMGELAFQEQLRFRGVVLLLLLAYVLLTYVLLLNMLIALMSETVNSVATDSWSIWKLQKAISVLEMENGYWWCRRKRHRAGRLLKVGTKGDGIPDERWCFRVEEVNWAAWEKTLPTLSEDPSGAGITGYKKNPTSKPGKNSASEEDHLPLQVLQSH
Put plainly: Ca++ imaging in N2a cells over-expressing TRPV2 (hypotonicity). The following applies: 5 μM.

For experiment [1], the target named is T2, TRPV4 (Rattus norvegicus, UniProt Q9ERZ8). Put plainly: Patch-clamp recording of TRPV4-mediated currents in TRPV4-GFP+ N2a cells. It counts as cell-based. Further details: expressed in transfected cells; host or cells: N2a (mouse neuroblastoma) cells. The following applies: 5 μM, 5 min pre-incubation, GSK101 5 nM, current densities at −100mV/+100 mV. Here is the method: Figure 3 TRPV4 channel inhibition by compounds 16-8 and 16-19 – patch-clamp e-phys. (A) Current-voltage relationship of TRPV4-mediated currents after activation with 5 nM GSK101. Recordings were performed in TRPV4-GFP+ N2a cells. The representative traces represent an average of ≈12 sweeps. In all experiments, cells were pre-incubated with the respective compound (5 μM) for 5 minutes.
T2 sequence (Q9ERZ8 whole entry): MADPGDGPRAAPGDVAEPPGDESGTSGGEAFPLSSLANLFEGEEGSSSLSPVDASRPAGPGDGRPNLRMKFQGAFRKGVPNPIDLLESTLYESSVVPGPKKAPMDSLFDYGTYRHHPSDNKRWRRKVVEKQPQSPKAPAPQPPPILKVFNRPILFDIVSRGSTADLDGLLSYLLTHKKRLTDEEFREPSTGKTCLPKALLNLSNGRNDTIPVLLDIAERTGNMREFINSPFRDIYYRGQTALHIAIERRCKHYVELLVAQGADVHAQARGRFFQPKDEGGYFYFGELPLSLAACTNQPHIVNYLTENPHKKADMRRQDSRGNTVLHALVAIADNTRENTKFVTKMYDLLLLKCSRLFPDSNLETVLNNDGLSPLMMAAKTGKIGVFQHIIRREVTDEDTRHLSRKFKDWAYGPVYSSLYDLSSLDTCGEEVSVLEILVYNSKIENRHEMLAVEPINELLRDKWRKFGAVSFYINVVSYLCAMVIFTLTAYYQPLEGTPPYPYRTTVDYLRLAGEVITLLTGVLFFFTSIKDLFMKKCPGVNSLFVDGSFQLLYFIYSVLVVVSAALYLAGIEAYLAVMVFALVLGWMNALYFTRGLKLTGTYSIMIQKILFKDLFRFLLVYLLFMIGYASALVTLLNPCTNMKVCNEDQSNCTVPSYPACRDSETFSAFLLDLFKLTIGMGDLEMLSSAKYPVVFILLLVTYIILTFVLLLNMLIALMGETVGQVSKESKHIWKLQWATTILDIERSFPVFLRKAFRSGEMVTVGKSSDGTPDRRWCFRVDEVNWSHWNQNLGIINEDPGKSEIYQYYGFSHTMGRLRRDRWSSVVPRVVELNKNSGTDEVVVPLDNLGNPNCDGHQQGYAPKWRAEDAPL
Heterologously transfected N2a cells were subjected to patch clamp electrophysiological recordings. Briefly, 24 h after transfection cells were prewashed with extracellular fluid (ECF) which contained (in mM) 1 MgCl2, 10 Glucose, 10 HEPES, 145 NaCl and 2 CaCl2 (pH 7.4, 310mOsM). Cells were then incubated with or without TRPV4 inhibitors in ECF for 5 min before whole cell recording. Cover slips were transferred to a recording chamber mounted on the stage of a Leica inverted microscope that was equipped with fluorescent filters. Transfected cells were identified before patching by their green florescent color. Cells were patched with a 2.5–3.0 MΩ glass electrode pulled from borosilicate glass capillaries using pipette puller (Sutter instruments). […] Whole cell currents were recorded using pclamp 9.2 software and Axopatch 200B amplifier (Molecular Devices). […] Capacitance was monitored throughout the experimental recordings. […]

The target of experiment [2] is T2, TRPV4. The following applies: for inhibition of TRPV4-mediated Ca++ influx / average peak ∆Ca++ concentration: 5 μM inhibitor, GSK101 5 nM; for average peak ∆Ca++ concentration: ≈100 cells, vehicle control 1156; for increased potency over GSK205: from TRPV4 IC50 values.
Protocol: We assessed TRPV4-inhibitory potency of these synthetic compounds in a Ca^++ imaging assay in neuronal 2a (N2a) permanent tissue culture cells with directed expression of mammalian (rat) TRPV4. […] For first round assessment, all TRPV4-inhibitory compounds were used at 5 μM (Fig. 2A).
(A) Ca^++ imaging screening of all compounds in N2A cells with directed expression of TRPV4 (rat). […] The number on each bar corresponds to average peak ∆Ca^++ concentrations in ≈100 cells. Inset: micrographs of pseudo-colored cells before and after activation with 5nM GSK101, in addition note the corresponding time course of the averaged Ca^++ signal (fura-2 Ca^++ imaging). […] Plot generated from averaged peak ∆Ca^++ concentration of ≥75 cells per data-point.
TRPV4-eGFP from rat was used, previously found to respond to stimulation with GSK101 and hypotonicity in similar manner as native, non-fused TRPV4.
A further experiment addresses TRPV1 (Mus musculus, UniProt Q704Y3). Put plainly: Ca++ imaging in N2a cells over-expressing TRPV1 (capsaicin). To be noted: 5 μM.

Structures are written as SMILES.

Sequence of TRPV1 (Q704Y3 whole entry): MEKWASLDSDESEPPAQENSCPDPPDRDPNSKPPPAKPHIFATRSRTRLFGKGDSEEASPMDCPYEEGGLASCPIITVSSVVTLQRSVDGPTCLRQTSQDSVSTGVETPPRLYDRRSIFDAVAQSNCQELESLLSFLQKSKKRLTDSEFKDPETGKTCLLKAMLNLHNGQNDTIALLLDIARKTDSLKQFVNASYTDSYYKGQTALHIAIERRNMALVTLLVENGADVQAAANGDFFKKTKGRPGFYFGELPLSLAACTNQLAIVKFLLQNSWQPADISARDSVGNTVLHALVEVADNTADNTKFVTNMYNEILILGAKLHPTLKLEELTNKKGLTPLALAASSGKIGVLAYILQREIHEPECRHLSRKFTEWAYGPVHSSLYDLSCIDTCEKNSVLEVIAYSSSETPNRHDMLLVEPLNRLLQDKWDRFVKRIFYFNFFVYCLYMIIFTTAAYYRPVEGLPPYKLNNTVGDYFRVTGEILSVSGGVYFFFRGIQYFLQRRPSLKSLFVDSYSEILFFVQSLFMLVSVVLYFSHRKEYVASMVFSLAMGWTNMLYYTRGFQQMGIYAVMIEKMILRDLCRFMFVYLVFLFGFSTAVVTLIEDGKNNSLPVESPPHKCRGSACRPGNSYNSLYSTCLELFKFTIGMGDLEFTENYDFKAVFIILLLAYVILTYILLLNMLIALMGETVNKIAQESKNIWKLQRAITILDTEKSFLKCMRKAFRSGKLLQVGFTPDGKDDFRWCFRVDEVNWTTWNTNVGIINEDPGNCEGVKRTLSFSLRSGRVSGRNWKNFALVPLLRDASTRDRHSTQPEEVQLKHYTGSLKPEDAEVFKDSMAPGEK
Protocol for TRPV1: (§1) (A) Specificity vs TRPV1-3. […] Mean±SEM is shown, ≥100 cells per condition. […] Plot generated from averaged peak ∆Ca^++ concentration of ≥75 cells per data-point.
(§2) N2a cells were used for directed expression of TRP ion channels as described previously[13]. […] All other channels were native channels from mouse, eGFP was co-transfected. […] Ca^++ imaging was performed as described previously[13][14][34].
Protocol for TRPV2: as §1, §2

In the case of `CN(CCc1ccc(Nc2nc(-c3ccccc3)cs2)cc1)Cc1ccccc1` [16-8], the “inhibition of TRPV2” value against TRPV2 is “did not inhibit”. Moreover, the “attenuation of TRPV4-mediated currents” value at TRPV4 [1] is “significantly increased potency”. Also, on TRPV4 [2], the 50% inhibitory concentration (IC50) was 450 ± 50 nM, the “inhibition of TRPV4-mediated Ca++ influx” value is recorded as “virtually eliminated Ca^++ influx”, the “average peak ∆Ca++ concentration” value was 6 nM and the “increased potency over GSK205” value is “approximately 10 fold”. The “inhibition of TRPV1” value at TRPV1 was “did not inhibit”.
Regarding `CCN(CCc1ccc(Nc2nc(-c3ccccc3)cs2)cc1)Cc1ccccc1` [16-19], at TRPV2, the “inhibition of TRPV2” value is recorded as “did not inhibit”. Moreover, the “attenuation of TRPV4-mediated currents” value at TRPV4 [1] is “significantly increased potency”. At TRPV4 [2], the “inhibition of TRPV4-mediated Ca++ influx” value is listed as “virtually eliminated Ca^++ influx”, the “average peak ∆Ca++ concentration” value was 8 nM and the “increased potency over GSK205” value was about 8 fold. Further, the “inhibition of TRPV1” value on TRPV1 was “did not inhibit”.
